This passage reports GI50 and TGI results from PubChem BioAssay (NCI).

Values joined by “and” are separate entries in the source; they are usually repeats but may differ in a detail not shown here. Identical values can stand only once.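 Five concentrations, 48 hours, 96-well plates. GI50 = concentration required for 50% inhibition of growth. TGI is the concentration that stops growth completely.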

Some test systems named below: U251 CNS; SK-MEL-5 melanoma; OVCAR-8 ovarian; NCI-H23 lung; A498 renal; SK-MEL-28 melanoma; SW-620 colon; 786-0 renal; NCI-H226 lung; HOP-62 NSCLC.
Experiment in all cases: NCI anticancer screen, dose series, 48 h

As to `CCC/C(=N\NC(=S)N1CC2CCC(CC2)C1)c1ccccn1`, the GI50 was 0.142 µM in the assay on U251 CNS; 0.0467 µM in the assay on SK-MEL-5 melanoma; 0.0141 µM in the assay with NCI-H23 lung; 0.263 µM with A498 renal; 0.0479 µM with SK-MEL-28 melanoma; 1.25 µM in the assay with 786-0 renal. The GI50 was 1.13 µM in the assay on NCI-H226 lung and 1.16 µM in the assay with HOP-62 NSCLC. In addition, the TGI with U251 CNS was 0.627 µM and 1.38 µM; in the assay with SK-MEL-5 melanoma it was 0.757 µM and 0.483 µM; with OVCAR-8 ovarian, 2.82 µM and 2.1 µM; in the assay on NCI-H23 lung it was 2.77 µM and 0.674 µM; with A498 renal, 2.06 µM and 1.61 µM; in the assay on SK-MEL-28 melanoma it was 5.16 µM and 1.29 µM. Further, the TGI with SW-620 colon is 0.555 µM and 0.221 µM; with 786-0 renal, 1.19 µM and 2.55 µM; in the assay on NCI-H226 lung it was 4.79 µM and 2.58 µM; in the assay on HOP-62 NSCLC, 4.92 µM and 2.7 µM.
As for `COc1ccc2c(=O)cc(C(Cl)(Cl)Cl)oc2c1`, the GI50 in the assay with U251 CNS is 1.14 µM; in the assay with SK-MEL-5 melanoma it was 0.278 µM; in the assay with OVCAR-8 ovarian, 0.338 µM; in the assay with NCI-H23 lung it was 0.409 µM; with A498 renal, 0.213 µM; in the assay with SK-MEL-28 melanoma it was 0.632 µM. Further, the GI50 in the assay on SW-620 colon was 0.237 µM; in the assay with 786-0 renal, 0.324 µM; in the assay with NCI-H226 lung, 14.8 µM; in the assay with HOP-62 NSCLC, 1.04 µM. The TGI is 11.1 µM with U251 CNS; 0.833 µM with SK-MEL-5 melanoma; 10.4 µM with OVCAR-8 ovarian; 19.3 µM with NCI-H23 lung; 3.36 µM in the assay on A498 renal; 23.2 µM in the assay on SK-MEL-28 melanoma. Besides, the TGI in the assay on SW-620 colon was 14.5 µM; with 786-0 renal, 14.1 µM; with NCI-H226 lung it was 35.8 µM; with HOP-62 NSCLC, 27.6 µM.
For `O=C(c1ccccc1)C1OC12C(=O)Nc1c(Cl)cc(Cl)cc12` (stereo not drawn), the TGI with U251 CNS was more than 100 µM; in the assay with SK-MEL-5 melanoma, more than 100 µM; with OVCAR-8 ovarian, 51.1 µM; in the assay on NCI-H23 lung, more than 100 µM; with A498 renal, more than 100 µM; in the assay on SK-MEL-28 melanoma, more than 100 µM. The TGI is 35.4 µM with SW-620 colon, more than 100 µM in the assay with 786-0 renal, more than 100 µM with NCI-H226 lung and more than 100 µM in the assay with HOP-62 NSCLC.
On to `O=C(O)CCC(N=Cc1nc(-c2ccccc2)oc1O)C(=O)O` (stereo not drawn), for which the TGI in the assay on U251 CNS, in the assay on SK-MEL-5 melanoma, in the assay with OVCAR-8 ovarian, with NCI-H23 lung, with A498 renal and in the assay with SK-MEL-28 melanoma was more than 100 µM in each case. Besides, the TGI in the assay on SW-620 colon, in the assay on 786-0 renal, in the assay on NCI-H226 lung and with HOP-62 NSCLC was more than 100 µM each time.
Consider `O=c1[nH]c(=S)[nH]c2c1CN(CCCN1CCOCC1)CN2`, for which the TGI in the assay with U251 CNS was more than 100 µM; in the assay with SK-MEL-5 melanoma, more than 100 µM; in the assay with OVCAR-8 ovarian, 96.4 µM; in the assay on NCI-H23 lung, 54.4 µM; with A498 renal, more than 100 µM; in the assay on SK-MEL-28 melanoma it was more than 100 µM. The TGI in the assay with SW-620 colon, in the assay with 786-0 renal, with NCI-H226 lung and in the assay with HOP-62 NSCLC was more than 100 µM each time.
With `COc1cc(N(C)C)c(OC)cc1/C=C\c1ccnc2ccccc12`, the TGI is more than 10 µM with U251 CNS; 3.13 µM in the assay with SK-MEL-5 melanoma; more than 10 µM in the assay on OVCAR-8 ovarian; more than 10 µM with NCI-H23 lung; 9.92 µM in the assay with A498 renal; more than 10 µM with SK-MEL-28 melanoma. Also, the TGI with SW-620 colon, with 786-0 renal, in the assay with NCI-H226 lung and with HOP-62 NSCLC was more than 10 µM in each case.
In the case of `Oc1ccc(-c2nc3ccccc3s2)cc1CN(Cc1ccccn1)Cc1ccccn1`, the GI50 in the assay on U251 CNS was 0.76 µM; in the assay with SK-MEL-5 melanoma it was 0.556 µM; in the assay with OVCAR-8 ovarian, 0.52 µM; with NCI-H23 lung, 2.64 µM; in the assay with A498 renal, 2.66 µM; in the assay with SK-MEL-28 melanoma, 2.35 µM. Also, the GI50 with SW-620 colon is 1.06 µM; in the assay with 786-0 renal it was 0.353 µM; with NCI-H226 lung it was 0.21 µM; with HOP-62 NSCLC, 0.34 µM. In addition, the TGI is 17.6 µM with U251 CNS; 2.27 µM in the assay with SK-MEL-5 melanoma; 13.4 µM in the assay on OVCAR-8 ovarian; 24.3 µM in the assay with NCI-H23 lung; 18.6 µM in the assay on A498 renal; 15.3 µM with SK-MEL-28 melanoma. In addition, the TGI in the assay with SW-620 colon came out at 14.7 µM; in the assay with 786-0 renal, 10.1 µM; in the assay with NCI-H226 lung, 3.5 µM; in the assay with HOP-62 NSCLC it was 32.1 µM.
Take `O=C1C=CC(=Nc2cc(Br)c(O)c(Br)c2)C=C1`: the GI50 with U251 CNS is 17.8 µM; with SK-MEL-5 melanoma, 15.6 µM; with OVCAR-8 ovarian, 14.9 µM; with NCI-H23 lung, 16 µM; with A498 renal, 26.5 µM; in the assay on SK-MEL-28 melanoma, 31.7 µM. Also, the GI50 in the assay on SW-620 colon was 15.8 µM; with 786-0 renal, 23.6 µM; with NCI-H226 lung it was 22.2 µM; in the assay on HOP-62 NSCLC, 28.4 µM. Also, the TGI is 99.1 µM in the assay on U251 CNS; 32.1 µM with SK-MEL-5 melanoma; more than 100 µM in the assay on OVCAR-8 ovarian; 38.3 µM with NCI-H23 lung; more than 100 µM in the assay on A498 renal; more than 100 µM in the assay with SK-MEL-28 melanoma. In addition, the TGI in the assay on SW-620 colon is more than 100 µM; in the assay with 786-0 renal, 60.6 µM; in the assay on NCI-H226 lung it was 59.6 µM; in the assay with HOP-62 NSCLC it was 76.1 µM.
Consider `O=C(Nc1ccncc1)C(=O)c1cn(S(=O)(=O)c2ccc(Cl)cc2)c2ccccc12`, for which the GI50 in the assay on U251 CNS was 1.06 µM; in the assay with SK-MEL-5 melanoma, 0.443 µM; in the assay with OVCAR-8 ovarian it was 1.63 µM; with NCI-H23 lung, 0.425 µM; in the assay on A498 renal, 8.83 µM; with SK-MEL-28 melanoma, 1.06 µM. Moreover, the GI50 in the assay on SW-620 colon was 1.35 µM; in the assay with 786-0 renal, 3.5 µM; in the assay on NCI-H226 lung it was 9.4 µM; in the assay with HOP-62 NSCLC it was 1.73 µM. For the same compound, the TGI in the assay with U251 CNS is 17.8 µM; in the assay with SK-MEL-5 melanoma, 11.9 µM; in the assay on OVCAR-8 ovarian, 97.1 µM; in the assay with NCI-H23 lung it was 33.1 µM; in the assay on A498 renal, more than 74.9 µM; with SK-MEL-28 melanoma, more than 50.4 µM. Besides, the TGI is more than 100 µM in the assay on SW-620 colon, 45.2 µM in the assay with 786-0 renal, more than 100 µM with NCI-H226 lung and 22 µM with HOP-62 NSCLC.
On to `CC1CCCC(C(O)CC2CC(=O)NC(=O)C2)C1O` (stereo not drawn), for which the TGI in the assay with U251 CNS, in the assay on SK-MEL-5 melanoma, with OVCAR-8 ovarian, with NCI-H23 lung, with A498 renal and in the assay on SK-MEL-28 melanoma was more than 100 µM each time. The TGI in the assay on SW-620 colon, in the assay on 786-0 renal, in the assay on NCI-H226 lung and in the assay on HOP-62 NSCLC was more than 100 µM in each case.
